What was measured:
Assay type in all cases: cell-based, human
[1] = system: endoplasmic reticulum (ER) stress response; test: Endoplasmic reticulum stress response in HEK 293 cells; conditions: 500 nM Thapsigargin, control
[2] = system: IRF3 S386 phosphorylation; test: Western blot of IRF3 pS386 in HEK 293 cells after DNA damage or stress agents; conditions: STING KO HEK 293 cells, up to 12 hours; 50 μM Etoposide, 500 nM Thapsigargin
[3] = system: STING-independent DNA sensing pathway (SIDSP); test: RT-qPCR of IFNB1 mRNA in CT DNA-treated STING KO U937 cells; conditions: PMA-differentiated STING KO U937 cells, CT DNA 16 hours; for SIDSP activation (IFNB1 mRNA expression): Ku-60019 0.125-1 μM, Nu-7441 0.25-2 μM, FIG. 4B
Procedure: (§1) FIG. 4A-K: Human DNA-PK is essential for the SIDSP. (A) PMA-differentiated STING KO U937 cells were treated with CT DNA for 16 hours in the presence of DMSO control, increasing concentrations of Ku-60019 ATM inhibitor [0.125, 0.25, 0.5, 1 μM], or Nu-7441 DNA-PK inhibitor [0.25, 0.5, 1, 2 μM], followed by western blot analysis of γ-H2AX phosphorylation. (B) PMA-differentiated STING KO U937 cells were treated with CT DNA for 16 hours in the presence of inhibitors as described in (A), followed by RT-qPCR analysis of IFNB1 mRNA expression. n.s.: not significant; ***:p<0.001. n=3 independent treatments per condition. (C) PMA-differentiated STING KO U937 cells were treated with CT DNA or RIG-I ligand in the presence of DMSO or Nu-7441 for 16 hours, followed by RT-qPCR analysis of IFNB1 mRNA expression. n.s.: not significant; ***:p<0.001. n=3 independent treatments per condition. (D) Western blot analysis of DNA-PK and STING in clonal lines of H1 control, STING KO and STING/DNA-PK DKO U937 cells. (E) PMA-differentiated STING KO and STING/DNA-PK DKO U937 cells were treated with CT DNA for 16 hours in DMSO or 2 μM Nu-7441, followed by RT-qPCR analysis of IFNB1 mRNA expression, normalized to Lipo control-treated cells. **:p<0.01. n=3 independent treatments per condition. (F) Primary human foreskin fibroblasts (HFF) and primary human hepatocytes from male (♂) and female (♀) donors were assessed for cGAS, STING, and DNA-PK proteins by fractionation into cytosol (C) and nuclear (N) extracts, followed by western blot. The nuclear extract was treated with salt-active nuclease to remove genomic DNA. (G) The indicated cell lines were stimulated with cGAMP for 16 hours before harvest and RT-qPCR analysis of IFNB1 mRNA expression. […] Multiple t-tests with significance determined by the Holm-Sidak method were used to compare IFNB1 in DMSO versus Nu7441 treated cells. *:p<0.05, ****:P<.0001. n=3 independent treatments per condition. […]

[4] = system: RNA-activated RIG-I-MAVS pathway; test: RT-qPCR of IFNB1 mRNA in RIG-I ligand-treated STING KO U937 cells; conditions: PMA-differentiated STING KO U937 cells, RIG-I ligand 16 hours, DMSO or Nu-7441; FIG. 4C
Procedure: as §1, with “(D) Western blot analysis of DNA-PK and STING in clonal lines of H1 control, STING KO and STING/DNA-PK DKO U937 cells. (E) PMA-differentiated STING KO and STING/DNA-PK DKO U937 cells were treated with CT DNA for 16 hours in DMSO or 2 μM Nu-7441, followed by RT-qPCR analysis of IFNB1 mRNA expression, normalized to Lipo control-treated cells. **:p<0.01. n=3 independent treatments per condition.” left out, “blot.” for “blot. The nuclear extract was treated with salt-active nuclease to remove genomic DNA. (G) The indicated cell lines were stimulated with cGAMP for 16 hours before harvest and RT-qPCR analysis of IFNB1 mRNA expression.”

[5] = system: histone H2AX on serine 139 (γ-H2AX); test: Western blot of γ-H2AX phosphorylation in CT DNA-treated STING KO U937 cells; conditions: PMA-differentiated STING KO U937 cells, CT DNA 16 hours; Ku-60019 0.125-1 μM, Nu-7441 0.25-2 μM; FIG. 4A
Procedure: as §1, with “(D) Western blot analysis of DNA-PK and STING in clonal lines of H1 control, STING KO and STING/DNA-PK DKO U937 cells. (E) PMA-differentiated STING KO and STING/DNA-PK DKO U937 cells were treated with CT DNA for 16 hours in DMSO or 2 μM Nu-7441, followed by RT-qPCR analysis of IFNB1 mRNA expression, normalized to Lipo control-treated cells. **:p<0.01. n=3 independent treatments per condition.” left out, “blot.” for “blot. The nuclear extract was treated with salt-active nuclease to remove genomic DNA. (G) The indicated cell lines were stimulated with cGAMP for 16 hours before harvest and RT-qPCR analysis of IFNB1 mRNA expression.”

[6] = system: STING KO U937 cells (DNA-PK SIDSP); test: Global mRNA-Seq analysis in STING KO U937 cells
Text: (A) Heat map representation of log 2 Fold Change in gene expression for the 124 antiviral response genes with significant differential expression in one of the four comparisons. The key includes a histogram in cyan plotting the distribution of log 2 Fold Change values for all the included genes. Data represent the average of three independent treatments per condition. […] Data represent the average of three independent treatments per condition. […] Data represent the average of three independent treatments per condition. (D) In H1 control U937 cells, the 16 hour CT DNA-activated log 2 Fold Change was plotted for DMSO control-treated cells on the x-axis and for Nu-7441-treated cells on the y-axis. Each dot represents a single gene that was differentially expressed at 16 hours in DMSO-treated cells (n=1024). […] A Wilcoxon matched pairs signed rank test was used to determine the p-value between DMSO control and Nu-7441-treated samples after DNA stimulation. Data represent the average of three independent treatments per condition. […]
Total RNA was added directly to lysis buffer from the SMART-Seq v4 Ultra Low Input RNA Kit for Sequencing (Takara), and reverse transcription was performed followed by PCR amplification to generate full length amplified cDNA. […] Libraries were pooled and quantified using a Qubit® Fluorometer (Life Technologies). Dual-index, single-read sequencing of pooled libraries was carried out on a HiSeq2500 sequencer (Illumina) with 58-base reads, using HiSeq™ v4 Cluster and SBS kits (IIlumina) with a target depth of 5 million reads per sample.

WT U937 cells = test: Global mRNA-Seq analysis in WT (H1 control) U937 cells
Text: FIG. 5A-F: The DNA-PK SIDSP activates a broad gene expression program. (A) Heat map representation of log 2 Fold Change in gene expression for the 124 antiviral response genes with significant differential expression in one of the four comparisons. The key includes a histogram in cyan plotting the distribution of log 2 Fold Change values for all the included genes. Data represent the average of three independent treatments per condition. […] Data represent the average of three independent treatments per condition. […] Data represent the average of three independent treatments per condition. (D) In H1 control U937 cells, the 16 hour CT DNA-activated log 2 Fold Change was plotted for DMSO control-treated cells on the x-axis and for Nu-7441-treated cells on the y-axis. Each dot represents a single gene that was differentially expressed at 16 hours in DMSO-treated cells (n=1024). […]
FIG. 8A-E: Normalized mRNA-Seq data comparing WT and STING KO U937 cells. (A) Boxplot depicting normalized read counts in log 2CPM format across all 36 samples. […] (C) Normalized read counts in log 2CPM format, comparing Lipo-treated WT U937 cells to Lipo-treated STING KO U937 cells. (D) Normalized read counts in log 2CPM format, comparing Lipo-treated WT U937 cells pretreated with DMSO or 2 μM N-7441. (E) Normalized read counts in log 2CPM format, comparing Lipo-treated STING KO cells pretreated with DMSO or 2 μM N-7441. […]

SMILES | endoplasmic reticulum (ER) stress response [1] | activation of IRF3 phosphorylation [2] | DNA-activated antiviral response (IFNB1 mRNA expression) ([3]; DMSO or Nu-7441, FIG. 4C) | SIDSP activation (IFNB1 mRNA expression) [3] | RNA-activated RIG-I-MAVS pathway (IFNB1 mRNA expression) [4] | DNA-activated phosphorylation of the histone H2AX on serine 139 (γ-H2AX) [5] | differentially expressed genes on which the inhibitor had an inhibitory effect ([6]; STING KO U937 cells, 16 hours post DNA transfection, 2 μM Nu-7441 vs vehicle, 1254/1327 genes, up- and downregulated, FIG. 5E) [%] | effect on gene expression in the absence of DNA stimulation ([6]; STING KO U937 cells, Lipo-treated, 2 μM, FIG. 8E) | gene expression triggered by the SIDSP ([6]; summary statement in discussion) | differentially expressed genes on which the inhibitor had a (mild) inhibitory effect (WT U937 cells; 16 hours post DNA transfection, 2 μM Nu-7441 vs vehicle, 718/1024 genes, FIG. 5D) [%] | effect on gene expression in the absence of DNA stimulation (WT U937 cells; Lipo-treated, 2 μM, FIG. 8D)
C/C=C(/C)C(=O)O[C@H]1C(C)=C2[C@H]([C@@H]1OC(=O)CCCCCCC)[C@@](C)(OC(C)=O)C[C@H](OC(=O)CCC)[C@@]1(O)[C@H]2OC(=O)[C@@]1(C)O [thapsigargin] | induced a potent endoplasmic reticulum (ER) stress response | but not IRF3, HSPA8, or H2AX phosphorylation | – | – | – | – | – | – | – | – | –
O=c1cc(N2CCOCC2)oc2c(-c3cccc4c3sc3ccccc34)cccc12 [Nu-7441, 8-(dibenzo[b,d]thiophen-4-yl)-2-morpholino-4H-chromen-4-one] | – | – | blocked the DNA-activated antiviral response | potently blocked | had no effect | reduced the DNA-activated phosphorylation of the histone H2AX on serine 139 (γ-H2AX) in a concentration-dependent manner | 94.5 | no significant effect | potently reduced nearly all gene expression | 70.1 | no significant effect
C[C@@H]1CN(CC(=O)Nc2ccc3c(c2)Cc2cccc(-c4cc(=O)cc(N5CCOCC5)o4)c2S3)C[C@H](C)O1 [Ku-60019] | – | – | – | unaffected | – | reduced the DNA-activated phosphorylation of the histone H2AX on serine 139 (γ-H2AX) in a concentration-dependent manner | – | – | – | – | –
